{"source": "patent US3978129A", "about": "“Alkenyl- and alkanylamines” (A. H. Robins Company, Incorporated, priority 1972, dated 1976)", "note": "Counter-ions that a name gives are not always drawn.", "data": [{"test_system": "depressant effects of tetrabenazine", "test": "Blocking the depressant effects induced in mice by intravenous tetrabenazine (modified Englehardt procedure, increased tetrabenazine dosage)", "format": "in vivo", "details": "Mus musculus, ip, compounds I.P.", "method": "The compounds were administered to mice intraperitoneally and the effectiveness of the compounds in blocking the depressant effects which are induced in mice by intravenous administration of 2-oxo-3-isobutyl-9,10-di-methoxy-1,2,3,4,6,7-hexahydro-11-bh-benzo[a]quinolizine (tetrabenazine was determined. The procedure used was a modification of that given by Englehardt, E. L. et al, J. Med. Chem. 11 (2) : 325(1968) wherein tetrabenazine dosage is increased over the Englehardt procedure. The ED50 of the compounds tested in blocking the depressant activity of tetrabenazine are given in Table I.", "units": {"ED50": "mg/kg"}, "values": [{"smiles": "CN(C)CCC(=CCCCl)c1ccccc1", "note": "[Example 1, 6-Chloro-N,N-dimethyl-3-phenyl-3-hexenylamine Hydrochloride]", "ED50": 2.5}, {"smiles": "CN(C)CC=C(CCCBr)c1ccccc1", "note": "[Example 2, 6-Bromo-N,N-dimethyl-3-phenyl-2-hexenylamine Hydrobromide]", "ED50": 0.5}, {"smiles": "CN(C)CCC(=CCCBr)c1ccccc1", "note": "[Example 3, 6-Bromo-N,N-dimethyl-N,N-dimethyl-3-hexenylamine Hydrobromide]", "ED50": 1.9}, {"smiles": "CN(C)CCCC(=CCCCl)c1ccccc1", "note": "[Example 4, 7-Chloro-N,N-dimethyl-4-phenyl-4-heptenylamine Oxalate]", "ED50": 20}, {"smiles": "CN(C)CCC=C(CCCCl)c1ccccc1", "note": "[Example 5, 7-Chloro-N,N-dimethyl-4-phenyl-3-heptenylamine Oxalate]", "ED50": 10}, {"smiles": "COc1ccc(C(=CCCCl)CCN(C)C)cc1", "note": "[Example 6, 6-Chloro-N,N-dimethyl-3-(4-methoxyphenyl)-3-hexenylamine Hydrochloride]", "ED50": 28.5}, {"smiles": "CN(C)CCC(=CCCCl)c1cccc(C(F)(F)F)c1", "note": "[Example 7, 6-Chloro-N,N-dimethyl-3-(3-trifluoromethylphenyl)-3-hexenylamine Oxalate]", "ED50": 15.5}, {"smiles": "CN(C)CCC(CCCCl)c1ccccc1", "note": "(centres unmarked) [Example 8, 6-Chloro-N,N-dimethyl-3-phenylhexylamine Hydrochloride]", "ED50": 3.6}]}]}
